Experimental findings from patent publication US20240287138A1, “CYCLIC PEPTIDES FOR INHIBITING TNF RECEPTOR 1 ACTIVITY” (Merck Sharp & Dohme LLC, priority 2023, published 2024) are described below.

One assay addresses T1, human TNFR2 ECD protein (Homo sapiens, UniProt P20333).
T1 construct: HRV 3C protease cleavage site (C); 6His (C, cleaved yes); made in house; host or cells: Sf21 insect cells (baculovirus), secreted
T1 sequence (P20333 23-257): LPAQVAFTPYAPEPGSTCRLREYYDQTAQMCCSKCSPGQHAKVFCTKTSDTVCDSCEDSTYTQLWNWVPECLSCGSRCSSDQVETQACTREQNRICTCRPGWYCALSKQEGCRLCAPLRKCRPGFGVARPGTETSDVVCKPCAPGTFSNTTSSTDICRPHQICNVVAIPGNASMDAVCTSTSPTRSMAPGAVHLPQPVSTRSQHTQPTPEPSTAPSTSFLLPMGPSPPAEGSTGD
The assay is described as follows: SPR off-target binding (selectivity) to human TNFR2 ECD. The gist of the method: (§1)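 Biotinylated human TNFR1 or TNFR2 ECD (C-terminal Avi-tag, Sf21-expressed) captured on a regenerable streptavidin chip; peptide analytes flowed in 10 mM HEPES pH 7.4, 150 mM NaCl, 3 mM EDTA, 0.05% P20, 2% DMSO. kon and koff measured; affinity calculated from the rate constants.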

Assay [1] addresses T2, human TNFR1 extracellular domain (ECD) protein (Homo sapiens, UniProt P19438).
T2 construct: HRV 3C protease cleavage site (C); 6His (C, cleaved yes); made in house; host or cells: Sf21 insect cells (baculovirus), secreted
T2 sequence (P19438 30-211): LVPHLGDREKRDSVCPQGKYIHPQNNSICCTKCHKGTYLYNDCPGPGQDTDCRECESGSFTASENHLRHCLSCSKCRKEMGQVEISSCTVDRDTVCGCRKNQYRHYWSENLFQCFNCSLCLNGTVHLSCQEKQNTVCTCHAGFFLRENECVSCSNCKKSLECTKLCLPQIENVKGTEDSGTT
Nature of the assay: SPR binding affinity to captured human TNFR1 ECD. The gist of the method: as §1
Background: SPR reads the build-up and loss of mass on a sensor chip optically.

Assay [2] addresses T3, human soluble TNFR1 (sTNFR1) (Homo sapiens, UniProt P19438).
T3 construct: made in house; host or cells: Sf21 (baculovirus)
T3 sequence (P19438 with tags, fused parts or gaps): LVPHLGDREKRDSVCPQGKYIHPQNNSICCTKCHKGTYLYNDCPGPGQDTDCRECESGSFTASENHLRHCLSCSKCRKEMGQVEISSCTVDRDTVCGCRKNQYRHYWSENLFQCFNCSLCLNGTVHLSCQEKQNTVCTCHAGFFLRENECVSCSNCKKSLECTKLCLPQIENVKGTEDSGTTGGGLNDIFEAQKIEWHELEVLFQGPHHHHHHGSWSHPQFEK
The assay is described as follows: Human sTNFR1-peptide displacement assay (LanthaScreen Eu TR-FRET binding assay). Summed up: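 Readout is the 665/615 nm TR-FRET ratio (Eu anti-His donor, streptavidin-Alexa647 acceptor), normalized to DMSO and saturating displacer, fit by Morrison-based five-parameter logistic for Kd^app. His-tagged sTNFR1 (1-211) prebound to 100 nM biotinylated peptide SEQ ID NO.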
(In general: Time-resolved FRET reads energy transfer from a long-lived donor to a nearby acceptor.)

Each structure is given as a SMILES string. Numbered stars: 1 amine (or outer) side, 2 acyl side, 3 side chain; on linkers, the order of the positions; unused ones are H or OH. Bridge positions count the residues as written; N and C are the ends. Square brackets hold non-standard residues; d marks the D form. Peptide text beside a SMILES is read from it. Trp(βS-Me,7-OMe) = COc1cccc2c([C@H](C)[C@H](N)C(=O)O)c[nH]c12; X5 = COc1cccc2[nH]cc([C@H](C)[C@H](N[*:1])C(=O)[*:2])c12; Trp(βS-Me) = C[C@@H](c1c[nH]c2ccccc12)[C@H](N)C(=O)O; Phe(4-CH2COOH) = N[C@@H](Cc1ccc(CC(=O)O)cc1)C(=O)O; Trp(7-Cl) = N[C@@H](Cc1c[nH]c2c(Cl)cccc12)C(=O)O; Phe(3-CONH2) = NC(=O)c1cccc(C[C@H](N)C(=O)O)c1; Phe(4-CONH2) = NC(=O)c1ccc(C[C@H](N)C(=O)O)cc1; Phe(4-COOH) = N[C@@H](Cc1ccc(C(=O)O)cc1)C(=O)O; Trp(7-aza) = N[C@@H](Cc1c[nH]c2ncccc12)C(=O)O; Phe(4-CH2NH2) = NCc1ccc(C[C@H](N)C(=O)O)cc1; Pip(5R-OH) = O=C(O)[C@@H]1CC[C@@H](O)CN1; αMeW = C[C@](N)(Cc1c[nH]c2ccccc12)C(=O)O; 4Pal = N[C@@H](Cc1ccncc1)C(=O)O; NMeE = CN[C@@H](CCC(=O)O)C(=O)O; Cit = NC(=O)NCCC[C@H](N)C(=O)O; NMeS = CN[C@@H](CO)C(=O)O; Pip = O=C(O)[C@@H]1CCCCN1; αMeS = C[C@](N)(CO)C(=O)O; Nle = CCCC[C@H](N)C(=O)O; Sar = CNCC(=O)O Some results are limits rather than exact numbers.

As for `CCCC[C@@H]1NC(=O)CSC[C@@H](C(N)=O)NC(=O)[C@H]([C@@H](C)c2c[nH]c3c(OC)cccc23)NC(=O)CN(C)C(=O)[C@H](Cc2ccc(O)cc2)NC(=O)[C@H](Cc2ccc(C(=O)O)cc2)NC(=O)[C@](C)(CO)NC(=O)[C@H](Cc2c[nH]c3c(Cl)cccc23)NC(=O)[C@H](Cc2ccncc2)NC(=O)[C@H](CC(N)=O)NC(=O)[C@H]2CCCN2C(=O)[C@H](Cc2c[nH]c3ccccc23)NC(=O)[C@@H]2CC[C@@H](O)CN2C(=O)[C@H](Cc2ccncc2)NC1=O` [SEQ ID NO. 203] ({CH2CO}-[Nle][4Pal][Pip(5R-OH)]W[dP]N[4Pal][Trp(7-Cl)][αMeS][Phe(4-COOH)]Y[Sar][Trp(βS-Me,7-OMe)]C-NH2; thioether N-14), the figures for the equilibrium dissociation constant (Kd) (at human TNFR2 ECD protein; in assay [1]; in assay [2]) were more than 1000 nM, 0.1 nM and 0.31 nM, respectively.
For `CCCC[C@@H]1NC(=O)CSC[C@@H](C(N)=O)NC(=O)[C@](C)(Cc2c[nH]c3ccccc23)NC(=O)CN(C)C(=O)[C@H](Cc2ccc(O)cc2)NC(=O)[C@H](Cc2cccc(C(N)=O)c2)NC(=O)[C@](C)(CO)NC(=O)[C@H](Cc2c[nH]c3c(Cl)cccc23)NC(=O)[C@H](Cc2ccncc2)NC(=O)[C@H](CC(N)=O)NC(=O)[C@H](CCC(=O)O)N(C)C(=O)[C@H](Cc2c[nH]c3ncccc23)NC(=O)[C@H](CO)NC(=O)[C@H](Cc2ccc(CN)cc2)NC1=O` [SEQ ID NO. 205] ({CH2CO}-[Nle][Phe(4-CH2NH2)]S[Trp(7-aza)][NMeE]N[4Pal][Trp(7-Cl)][αMeS][Phe(3-CONH2)]Y[Sar][αMeW]C-NH2; thioether N-14) the same measures were more than 1000 nM, 0.6 nM and 1.01 nM.
Consider `CCCC[C@@H]1NC(=O)CSC[C@@H](C(N)=O)NC(=O)[C@H]([C@@H](C)c2c[nH]c3cccc(OC)c23)NC(=O)CN(C)C(=O)[C@H](Cc2ccc(O)cc2)NC(=O)[C@H](Cc2ccc(C(N)=O)cc2)NC(=O)[C@](C)(CO)NC(=O)[C@H](Cc2c[nH]c3c(Cl)cccc23)NC(=O)[C@H](Cc2ccc(C(=O)O)cc2)NC(=O)[C@H](CC(N)=O)NC(=O)[C@H](CCC(=O)O)N(C)C(=O)[C@H](Cc2c[nH]c3ncccc23)NC(=O)[C@H](CO)N(C)C(=O)[C@H](Cc2ccncc2)NC1=O` [SEQ ID NO. 209] ({CH2CO}-[Nle][4Pal][NMeS][Trp(7-aza)][NMeE]N[Phe(4-COOH)][Trp(7-Cl)][αMeS][Phe(4-CONH2)]Y[Sar][X5]C-NH2; thioether N-14), for which the results for the dissociation constant (Kd) (at human TNFR2 ECD protein; in assay [1]; in assay [2]) were more than 1000 nM, 0.4 nM and 0.67 nM, respectively. The same molecule gave an IC50 in assay [2] of 0.6 nM.
For `CCCC[C@@H]1NC(=O)CSC[C@@H](C(N)=O)NC(=O)[C@H]([C@@H](C)c2c[nH]c3c(OC)cccc23)NC(=O)CN(C)C(=O)[C@H](Cc2ccc(O)cc2)NC(=O)[C@H](Cc2ccc(C(=O)O)cc2)NC(=O)[C@](C)(CO)NC(=O)[C@H](Cc2c[nH]c3c(Cl)cccc23)NC(=O)[C@H](Cc2ccc(CC(=O)O)cc2)NC(=O)[C@H](CC(N)=O)NC(=O)[C@H](CCC(=O)O)N(C)C(=O)[C@H](Cc2c[nH]c3ccccc23)NC(=O)[C@@H]2CCCCN2C(=O)[C@H](Cc2ccncc2)NC1=O` [SEQ ID NO. 212] ({CH2CO}-[Nle][4Pal][Pip]W[NMeE]N[Phe(4-CH2COOH)][Trp(7-Cl)][αMeS][Phe(4-COOH)]Y[Sar][Trp(βS-Me,7-OMe)]C-NH2; thioether N-14) the same measures were more than 1000 nM, 0.5 nM, 0.73 nM and 0.9 nM.
As for `C[C@@H](c1c[nH]c2ccccc12)[C@@H]1NC(=O)CN(C)C(=O)[C@H](Cc2c[nH]cn2)NC(=O)[C@H](Cc2ccc(C(=O)O)cc2)NC(=O)[C@](C)(CO)NC(=O)[C@H](Cc2c[nH]c3c(Cl)cccc23)NC(=O)[C@H](Cc2ccc(C(=O)O)cc2)NC(=O)[C@H](CC(N)=O)NC(=O)[C@H]2CCCN2C(=O)[C@H]([C@@H](C)c2c[nH]c3ccccc23)NC(=O)[C@H](CO)NC(=O)[C@H](Cc2ccc(CN)cc2)NC(=O)[C@H](CCCNC(N)=O)NC(=O)CSC[C@@H](C(N)=O)NC1=O` [SEQ ID NO. 215] ({CH2CO}-[Cit][Phe(4-CH2NH2)]S[Trp(βS-Me)][dP]N[Phe(4-COOH)][Trp(7-Cl)][αMeS][Phe(4-COOH)]H[Sar][Trp(βS-Me)]C-NH2; thioether N-14), the Kd was more than 1000 nM on human TNFR2 ECD protein and 1.8 nM in assay [1]. The molecule further showed an IC50 in assay [2] of 2.85 nM.

The term Kd denotes the constant that tells how readily two partners part at equilibrium. By IC50 is commonly meant the midpoint of a concentration-inhibition curve. Low readings indicate greater potency in that assay, high ones weaker potency in that assay.
